Results from US20160022632A1, “COMBINATION OF CANAGLIFLOZIN AND PROBENECID FOR THE TREAMENT OF HYPERURICEMIA” (JANSSEN PHARMACEUTICA NV, priority 2013, published 2016).

What was measured:
[1] = Fasting serum urate levels, open-label fixed-sequence clinical study (NCT01428284); format: in vivo, human; conditions: for Decrease of mean serum urate level from baseline: canagliflozin alone; for Serum urate level, Mean / Serum urate level, Mean Decrease: healthy subjects, canagliflozin 300 mg once daily from Day 1
Excerpt: (§1) A single-center, open-label, fixed-sequence study to assess the effects of multiple-dose probenecid on multiple-dose of canagliflozin, in healthy subjects, was completed as described below (study NCT01428284) on clinicaltrials.gov registry website). The study consisted of 3 phases: (1) a Screening Phase of approximately 19 days (Day −21 to Day −3), (2) an Open-label Treatment Phase of 20 days (Day −2 to Day 18), and (3) a Follow-up phase (7 to 10 days after discharge on Day 18). The total duration of the study was approximately 49 days.
(§2) Subjects with history of (or current) any of the following medical conditions were excluded: (a) Acute or chronic renal insufficiency (eGFR below 90 mL/min/1.73 m^2); (b) Kidney or bladder stones (nephrolithiasis); (c) Hyperuricosuria (>800 mg/day), or gout; and/or (d) Hyperuricemia (>6.8 mg/dL, 404 μmol/L). Reasons for subject withdrawal from the study could include the following: (a) Lost to follow-up; (b) Withdrawal of consent; (c) Withdrawal of consent for pharmacogenomic research (Part 1); (d) Subject was not in compliance with requirements of the study and prohibitions and restrictions; and/or (e) A subject could be discontinued from study treatment (final assessments were to be obtained) if the investigator believed that for safety reasons (eg, adverse event) it was in the best interest of the subject to stop study treatment.
(§3) All study drugs were taken between 7:30 and 9:30 a.m. with 240 mL of noncarbonated water. Study drug was swallowed whole and not chewed, divided, dissolved or crushed. […] For each subject, on days when both canagliflozin and probenecid were administered, both doses were administered at approximately the same time.
(§4) Canagliflozin was administered as a single 300-mg tablet on Days 1 to Day 17. Probenecid was administered b.i.d. as one 500-mg tablet from Day 15 to Day 17. On Day 14 and Day 17, subjects received study drug under fasted conditions, and standardized lunch approximately 4 hours after study drug administration. On all other study days, subjects received canagliflozin and/or probenecid 1 hour before they received a standardized meal. The study diet was standardized by the site dietician in order to minimize the effect on uric acid levels. Subjects were also advised not to consume high purine-enriched foods from screening to completion of the study.
(§5) All laboratory testing was conducted by a licensed clinical laboratory (Physicians Reference Laboratory [PRL]), 7800 West 110th Street, Overland Park, Kans. 66210-2304). Clinical laboratory tests included, among others:
(a) Serum chemistry: glucose, creatinine, blood urea nitrogen (BUN), total protein, total bilirubin, phosphate, albumin, calcium, fasting serum uric acid, sodium, potassium, chloride, magnesium, lactic acid dehydrogenase, alkaline phosphatase, alanine transaminase, aspartate transaminase, gamma-glutamyltransferase, bicarbonate, creatine phosphokinase, total cholesterol (screening only), and triglycerides (screening only); and
(§6) Laboratory data were summarized by type of laboratory test. Normal reference ranges and abnormal results were used in the summary of laboratory data. Descriptive statistics were calculated for each laboratory analyte at baseline, Day 18, and end-of-study.
Table 1, below lists mean serum urate levels and calculated mean decrease through the course of the study. […] FIG. 1 illustrates said mean serum urate levels (±standard deviation) as a function of study day.

[2] = 24-hour urinary uric acid excretion, open-label fixed-sequence clinical study (NCT01428284); format: in vivo, human; conditions: for Increase of mean urinary urate excretion compared to baseline: canagliflozin alone; for Urine urate excretion, Mean / Urine urate excretion, Mean Change from Day−1: healthy subjects, 24-hour urine, canagliflozin 300 mg once daily from Day 1
Excerpt: as §1, §2, §3, §4, §5
(b) Urinary uric acid excretion: A 24-hour total urine was collected at the time points specified in the Time and Events Schedule of the study protocol. The samples were mixed thoroughly and stored between 2° C. and 8° C. until shipment.
as §6
Table 2, below, lists mean urine uric acid excretion and calculated mean changes through the course of the study. FIG. 2 illustrates said mean uric acid excretion (±standard deviation) as a function of study day.

[3] = cited from earlier work

Cc1ccc([C@@H]2O[C@H](CO)[C@@H](O)[C@H](O)[C@H]2O)cc1Cc1ccc(-c2ccc(F)cc2)s1 [canagliflozin]
Decrease of mean serum urate level from baseline ([1]; Day 2): approximately 19%
Decrease of mean serum urate level from baseline ([1]; Day 3): ~24%
Decrease of mean serum urate level from baseline ([1]; Day 14): ~23%
Serum urate level, Mean ([1]; Day 1): 293.151 µmol/L
Serum urate level, Mean Decrease ([1]; Day 1): -5.523 µmol/L
Serum urate level, Mean ([1]; Day 2): 241.580 µmol/L
Serum urate level, Mean Decrease ([1]; Day 2): -57.650 µmol/L
Serum urate level, Mean ([1]; Day 3): 228.769 µmol/L
Serum urate level, Mean Decrease ([1]; Day 3): -70.461 µmol/L
Serum urate level, Mean ([1]; Day 14): 229.684 µmol/L
Serum urate level, Mean Decrease ([1]; Day 14): -69.546 µmol/L
Increase of mean urinary urate excretion compared to baseline ([2]; Day 1): approximately 19%
Increase of mean urinary urate excretion compared to baseline ([2]; Day 2): ~6%
Increase of mean urinary urate excretion compared to baseline ([2]; Day 13): ~1%
Urine urate excretion, Mean ([2]; Day 1): 5.068 mmol/day
Urine urate excretion, Mean Change from Day−1 ([2]; Day 1): 0.796 mmol/day
Urine urate excretion, Mean ([2]; Day 2): 4.544 mmol/day
Urine urate excretion, Mean Change from Day−1 ([2]; Day 2): 0.273 mmol/day
Urine urate excretion, Mean ([2]; Day 13): 4.319 mmol/day
Urine urate excretion, Mean Change from Day−1 ([2]; Day 13): 0.048 mmol/day
Urine urate excretion, Mean ([2]; Day 14): 4.208 mmol/day
Urine urate excretion, Mean Change from Day−1 ([2]; Day 14): -0.064 mmol/day

Oc1ncnc2[nH]ncc12 [Allopurinol]
Patients with side-effects [3]: up to 20%
